From ChEMBL document CHEMBL4507291 (2021)

Legend:
[1] = target: Melanocortin receptor 4 (Homo sapiens) (UniProt P32245); experiment: Inhibition of Melanocortin MC4 at 10 µM in the Eurofins-Panlabs radioligand binding assay (Eurofins_assay_251350); design: ligand concentration 0.02 nM; details: Compound concentration 10.0 uM
[2] = target: MAO-B (amine oxidase [flavin-containing] B) (Homo sapiens, UniProt P27338); experiment: Inhibition of Monoamine Oxidase MAO-B at compound concentration of 10.0 uM in the Eurofins-Panlabs enzyme assay (Eurofins_assay_140120); design: substrate with concentration 50 uM Kynuramine, incubation time 60 min, incubation temperature 37 C; details: recombinant human MAO-B expressed in insect Hi5 cells, probe kynuramine (50 uM), compound concentration 10 uM
[3] = target: Phosphatidylinositol 4-phosphate 3-kinase C2 domain-containing subunit beta (Homo sapiens) (UniProt O00750); experiment: PIK3C2B (PI3K-C2 beta) Kinase screen; details: Compound concentration 1.0 uM
[4] = target: T1, G protein-coupled receptor kinase 3 (Homo sapiens) (UniProt P35626); experiment: ADRBK2 (GRK3) Kinase screen; details: Compound concentration 1.0 uM
T1 sequence (whole entry): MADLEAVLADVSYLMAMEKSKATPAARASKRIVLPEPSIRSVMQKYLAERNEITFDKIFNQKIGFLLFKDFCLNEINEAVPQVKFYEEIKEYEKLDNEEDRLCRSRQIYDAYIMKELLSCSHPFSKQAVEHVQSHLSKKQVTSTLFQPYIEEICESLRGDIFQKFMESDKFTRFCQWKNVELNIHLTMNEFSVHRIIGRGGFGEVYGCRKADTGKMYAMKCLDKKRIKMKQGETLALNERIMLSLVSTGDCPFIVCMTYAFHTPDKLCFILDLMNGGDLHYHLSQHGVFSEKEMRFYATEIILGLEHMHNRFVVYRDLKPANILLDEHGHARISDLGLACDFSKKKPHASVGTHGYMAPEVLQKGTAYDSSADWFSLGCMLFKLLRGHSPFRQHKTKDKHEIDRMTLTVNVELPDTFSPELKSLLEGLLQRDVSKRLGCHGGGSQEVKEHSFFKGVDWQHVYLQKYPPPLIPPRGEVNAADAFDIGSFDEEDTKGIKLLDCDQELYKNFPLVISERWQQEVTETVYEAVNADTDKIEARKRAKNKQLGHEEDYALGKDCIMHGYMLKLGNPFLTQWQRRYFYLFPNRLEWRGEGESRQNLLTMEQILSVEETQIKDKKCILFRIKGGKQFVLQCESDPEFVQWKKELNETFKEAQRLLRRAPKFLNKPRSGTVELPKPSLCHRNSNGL

[5] = system: T2, Receptor-type tyrosine-protein kinase FLT3 (Homo sapiens), P36888 [D835Y]; experiment: FLT3 D835Y Kinase screen; details: Compound concentration 1.0 uM
T2 sequence (whole entry): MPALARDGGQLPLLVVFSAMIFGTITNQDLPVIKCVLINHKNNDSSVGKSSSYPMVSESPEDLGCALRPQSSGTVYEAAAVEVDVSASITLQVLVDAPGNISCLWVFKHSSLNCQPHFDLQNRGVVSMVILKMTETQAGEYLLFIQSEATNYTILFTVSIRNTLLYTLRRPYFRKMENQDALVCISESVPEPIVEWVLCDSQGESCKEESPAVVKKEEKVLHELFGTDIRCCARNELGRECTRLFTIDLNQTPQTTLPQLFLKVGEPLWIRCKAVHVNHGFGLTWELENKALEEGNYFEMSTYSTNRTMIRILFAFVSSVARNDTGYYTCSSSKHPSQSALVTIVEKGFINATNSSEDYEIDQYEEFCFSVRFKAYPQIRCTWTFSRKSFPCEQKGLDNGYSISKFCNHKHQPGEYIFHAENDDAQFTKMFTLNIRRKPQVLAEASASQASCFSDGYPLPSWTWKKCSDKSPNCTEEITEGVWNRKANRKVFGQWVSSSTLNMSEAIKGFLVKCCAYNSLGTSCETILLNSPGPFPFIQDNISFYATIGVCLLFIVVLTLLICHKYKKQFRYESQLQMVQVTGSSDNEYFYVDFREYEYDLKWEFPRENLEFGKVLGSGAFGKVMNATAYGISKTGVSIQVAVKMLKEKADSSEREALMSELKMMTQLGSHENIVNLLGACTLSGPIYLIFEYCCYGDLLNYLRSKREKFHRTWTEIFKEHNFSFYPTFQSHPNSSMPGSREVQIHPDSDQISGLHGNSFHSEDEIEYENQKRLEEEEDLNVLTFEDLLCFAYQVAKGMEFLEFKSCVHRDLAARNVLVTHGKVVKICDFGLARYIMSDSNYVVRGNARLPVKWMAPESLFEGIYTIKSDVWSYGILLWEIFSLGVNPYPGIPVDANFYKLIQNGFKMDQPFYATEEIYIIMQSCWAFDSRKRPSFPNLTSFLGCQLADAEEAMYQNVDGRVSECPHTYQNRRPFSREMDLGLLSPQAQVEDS

[6] = target: Mu-type opioid receptor (Homo sapiens) (UniProt P35372); details: Compound concentration 10.0 uM
[7] = target: Mitogen-activated protein kinase 3 (Homo sapiens) (UniProt P27361); experiment: Inhibition of Protein Serine/Threonine Kinase, MAPK3 (ERK1) at 10 µM in the Eurofins-Panlabs enzyme assay (Eurofins_assay_171000); details: Compound concentration 10.0 uM
[8] = target: Serine/threonine-protein kinase MRCK beta (Homo sapiens) (UniProt Q9Y5S2); experiment: CDC42 BPB (MRCKB) Kinase screen; details: Compound concentration 1.0 uM
[9] = target: T3, Alpha-1D adrenergic receptor (Homo sapiens) (UniProt P25100); experiment: Inhibition of Adrenergic alpha1D at 10 µM in the Eurofins-Panlabs radioligand binding assay (Eurofins_assay_203400); details: Compound concentration 10.0 uM
T3 sequence (whole entry): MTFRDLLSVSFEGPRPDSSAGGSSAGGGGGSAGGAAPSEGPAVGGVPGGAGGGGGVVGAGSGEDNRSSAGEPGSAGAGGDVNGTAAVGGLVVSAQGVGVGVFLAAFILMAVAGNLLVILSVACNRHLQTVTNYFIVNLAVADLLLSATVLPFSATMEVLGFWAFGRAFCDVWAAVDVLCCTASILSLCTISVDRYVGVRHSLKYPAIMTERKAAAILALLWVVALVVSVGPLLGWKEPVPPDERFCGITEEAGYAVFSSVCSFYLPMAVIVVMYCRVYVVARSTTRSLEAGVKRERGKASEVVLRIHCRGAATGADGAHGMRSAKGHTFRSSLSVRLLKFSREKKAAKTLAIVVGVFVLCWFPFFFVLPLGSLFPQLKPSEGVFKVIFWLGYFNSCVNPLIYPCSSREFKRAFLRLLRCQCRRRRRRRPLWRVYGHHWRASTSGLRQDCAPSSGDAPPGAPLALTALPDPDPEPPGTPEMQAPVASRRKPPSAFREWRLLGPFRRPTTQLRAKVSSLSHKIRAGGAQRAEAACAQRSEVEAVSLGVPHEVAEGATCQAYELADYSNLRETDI

[10] = target: Cholecystokinin receptor type A (Homo sapiens) (UniProt P32238); experiment: Inhibition of Cholecystokinin CCK1 (CCKA) at 10 µM in the Eurofins-Panlabs radioligand binding assay (Eurofins_assay_218020); details: Compound concentration 10.0 uM
[11] = target: Calcium/calmodulin-dependent protein kinase type II subunit alpha (Homo sapiens) (UniProt Q9UQM7); experiment: CAMK2A (CaMKII alpha) Kinase screen; details: Compound concentration 1.0 uM
Sequence of Calcium/calmodulin-dependent protein kinase type II subunit alpha (Homo sapiens) (Q9UQM7 whole entry): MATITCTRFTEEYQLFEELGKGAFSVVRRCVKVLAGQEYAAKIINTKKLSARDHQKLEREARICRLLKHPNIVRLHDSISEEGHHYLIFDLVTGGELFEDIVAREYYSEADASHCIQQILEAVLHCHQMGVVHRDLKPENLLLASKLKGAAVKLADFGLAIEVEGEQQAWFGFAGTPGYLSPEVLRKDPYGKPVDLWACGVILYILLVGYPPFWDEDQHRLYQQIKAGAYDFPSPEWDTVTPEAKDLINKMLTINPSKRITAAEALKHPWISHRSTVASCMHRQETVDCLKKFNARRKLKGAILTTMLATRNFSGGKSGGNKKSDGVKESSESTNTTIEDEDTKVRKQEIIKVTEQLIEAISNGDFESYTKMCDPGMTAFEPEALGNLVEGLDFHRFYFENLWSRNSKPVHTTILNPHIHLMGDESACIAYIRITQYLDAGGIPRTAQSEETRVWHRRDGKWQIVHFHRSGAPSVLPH

Sequence of Phosphatidylinositol 4-phosphate 3-kinase C2 domain-containing subunit beta (Homo sapiens) (O00750 whole entry, the tested form may be a part): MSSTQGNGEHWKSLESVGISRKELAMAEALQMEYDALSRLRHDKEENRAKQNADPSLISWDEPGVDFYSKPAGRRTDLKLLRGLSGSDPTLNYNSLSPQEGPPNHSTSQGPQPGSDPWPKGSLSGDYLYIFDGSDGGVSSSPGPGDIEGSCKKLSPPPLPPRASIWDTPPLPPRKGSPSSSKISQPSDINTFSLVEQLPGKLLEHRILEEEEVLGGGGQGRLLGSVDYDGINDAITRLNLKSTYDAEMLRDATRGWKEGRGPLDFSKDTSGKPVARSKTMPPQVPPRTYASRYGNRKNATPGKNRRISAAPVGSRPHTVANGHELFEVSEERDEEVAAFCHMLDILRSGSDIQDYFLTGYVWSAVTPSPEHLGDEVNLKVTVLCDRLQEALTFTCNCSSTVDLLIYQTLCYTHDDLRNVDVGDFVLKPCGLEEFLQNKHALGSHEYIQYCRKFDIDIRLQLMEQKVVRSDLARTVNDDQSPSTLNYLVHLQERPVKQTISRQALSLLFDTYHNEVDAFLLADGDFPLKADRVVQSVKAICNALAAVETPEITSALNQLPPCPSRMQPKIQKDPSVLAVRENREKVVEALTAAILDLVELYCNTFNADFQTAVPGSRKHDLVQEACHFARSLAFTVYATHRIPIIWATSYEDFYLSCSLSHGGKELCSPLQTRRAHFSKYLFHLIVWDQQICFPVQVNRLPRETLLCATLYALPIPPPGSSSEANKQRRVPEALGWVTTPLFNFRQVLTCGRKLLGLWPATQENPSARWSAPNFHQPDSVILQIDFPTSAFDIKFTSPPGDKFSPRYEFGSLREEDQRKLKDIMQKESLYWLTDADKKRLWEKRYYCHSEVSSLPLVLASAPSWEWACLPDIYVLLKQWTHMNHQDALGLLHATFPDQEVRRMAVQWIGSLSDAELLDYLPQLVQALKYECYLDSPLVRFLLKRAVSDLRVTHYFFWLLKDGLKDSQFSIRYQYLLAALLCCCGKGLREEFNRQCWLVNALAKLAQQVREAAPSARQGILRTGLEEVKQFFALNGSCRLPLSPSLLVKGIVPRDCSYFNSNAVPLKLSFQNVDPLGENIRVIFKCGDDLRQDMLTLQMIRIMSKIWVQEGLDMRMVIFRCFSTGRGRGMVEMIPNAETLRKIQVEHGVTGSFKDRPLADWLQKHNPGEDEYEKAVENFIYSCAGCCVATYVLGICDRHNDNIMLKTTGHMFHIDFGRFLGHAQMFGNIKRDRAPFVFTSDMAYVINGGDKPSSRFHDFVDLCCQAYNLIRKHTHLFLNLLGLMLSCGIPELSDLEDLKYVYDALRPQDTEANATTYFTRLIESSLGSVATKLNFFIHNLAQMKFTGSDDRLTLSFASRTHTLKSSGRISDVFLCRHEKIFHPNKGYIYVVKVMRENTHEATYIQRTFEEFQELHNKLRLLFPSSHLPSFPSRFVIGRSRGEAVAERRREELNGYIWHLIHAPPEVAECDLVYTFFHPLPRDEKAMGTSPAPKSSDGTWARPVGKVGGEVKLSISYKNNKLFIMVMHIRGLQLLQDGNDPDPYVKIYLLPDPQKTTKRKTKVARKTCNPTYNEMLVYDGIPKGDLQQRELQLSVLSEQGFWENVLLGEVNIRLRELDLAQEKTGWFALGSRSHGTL
Sequence of Cholecystokinin receptor type A (Homo sapiens) (P32238 whole entry): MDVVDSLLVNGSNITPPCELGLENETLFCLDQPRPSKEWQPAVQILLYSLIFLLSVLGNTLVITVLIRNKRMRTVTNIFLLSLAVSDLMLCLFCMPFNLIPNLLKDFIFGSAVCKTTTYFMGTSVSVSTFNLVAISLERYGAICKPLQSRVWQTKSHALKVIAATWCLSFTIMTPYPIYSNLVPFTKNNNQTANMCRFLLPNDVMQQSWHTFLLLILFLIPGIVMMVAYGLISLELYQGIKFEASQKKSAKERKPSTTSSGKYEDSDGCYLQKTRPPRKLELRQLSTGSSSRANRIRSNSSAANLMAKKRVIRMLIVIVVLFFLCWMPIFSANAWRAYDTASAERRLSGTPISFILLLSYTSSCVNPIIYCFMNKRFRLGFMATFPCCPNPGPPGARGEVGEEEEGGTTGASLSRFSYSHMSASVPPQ
Sequence of MAO-B (amine oxidase [flavin-containing] B) (P27338 whole entry, the tested form may be a part): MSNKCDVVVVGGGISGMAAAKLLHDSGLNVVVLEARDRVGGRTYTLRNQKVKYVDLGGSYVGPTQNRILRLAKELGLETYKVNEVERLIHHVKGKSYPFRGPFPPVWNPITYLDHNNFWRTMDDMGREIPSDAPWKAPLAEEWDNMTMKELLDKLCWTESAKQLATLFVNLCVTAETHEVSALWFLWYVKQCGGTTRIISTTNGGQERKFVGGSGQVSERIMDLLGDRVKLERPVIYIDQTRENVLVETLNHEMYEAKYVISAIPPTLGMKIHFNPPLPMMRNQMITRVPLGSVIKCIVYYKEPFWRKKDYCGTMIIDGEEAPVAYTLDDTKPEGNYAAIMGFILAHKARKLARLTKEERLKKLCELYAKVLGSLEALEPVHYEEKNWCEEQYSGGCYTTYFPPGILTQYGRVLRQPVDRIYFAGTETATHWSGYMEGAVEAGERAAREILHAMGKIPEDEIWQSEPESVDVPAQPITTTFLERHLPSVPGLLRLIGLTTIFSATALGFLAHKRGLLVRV
Sequence of Serine/threonine-protein kinase MRCK beta (Homo sapiens) (Q9Y5S2 whole entry): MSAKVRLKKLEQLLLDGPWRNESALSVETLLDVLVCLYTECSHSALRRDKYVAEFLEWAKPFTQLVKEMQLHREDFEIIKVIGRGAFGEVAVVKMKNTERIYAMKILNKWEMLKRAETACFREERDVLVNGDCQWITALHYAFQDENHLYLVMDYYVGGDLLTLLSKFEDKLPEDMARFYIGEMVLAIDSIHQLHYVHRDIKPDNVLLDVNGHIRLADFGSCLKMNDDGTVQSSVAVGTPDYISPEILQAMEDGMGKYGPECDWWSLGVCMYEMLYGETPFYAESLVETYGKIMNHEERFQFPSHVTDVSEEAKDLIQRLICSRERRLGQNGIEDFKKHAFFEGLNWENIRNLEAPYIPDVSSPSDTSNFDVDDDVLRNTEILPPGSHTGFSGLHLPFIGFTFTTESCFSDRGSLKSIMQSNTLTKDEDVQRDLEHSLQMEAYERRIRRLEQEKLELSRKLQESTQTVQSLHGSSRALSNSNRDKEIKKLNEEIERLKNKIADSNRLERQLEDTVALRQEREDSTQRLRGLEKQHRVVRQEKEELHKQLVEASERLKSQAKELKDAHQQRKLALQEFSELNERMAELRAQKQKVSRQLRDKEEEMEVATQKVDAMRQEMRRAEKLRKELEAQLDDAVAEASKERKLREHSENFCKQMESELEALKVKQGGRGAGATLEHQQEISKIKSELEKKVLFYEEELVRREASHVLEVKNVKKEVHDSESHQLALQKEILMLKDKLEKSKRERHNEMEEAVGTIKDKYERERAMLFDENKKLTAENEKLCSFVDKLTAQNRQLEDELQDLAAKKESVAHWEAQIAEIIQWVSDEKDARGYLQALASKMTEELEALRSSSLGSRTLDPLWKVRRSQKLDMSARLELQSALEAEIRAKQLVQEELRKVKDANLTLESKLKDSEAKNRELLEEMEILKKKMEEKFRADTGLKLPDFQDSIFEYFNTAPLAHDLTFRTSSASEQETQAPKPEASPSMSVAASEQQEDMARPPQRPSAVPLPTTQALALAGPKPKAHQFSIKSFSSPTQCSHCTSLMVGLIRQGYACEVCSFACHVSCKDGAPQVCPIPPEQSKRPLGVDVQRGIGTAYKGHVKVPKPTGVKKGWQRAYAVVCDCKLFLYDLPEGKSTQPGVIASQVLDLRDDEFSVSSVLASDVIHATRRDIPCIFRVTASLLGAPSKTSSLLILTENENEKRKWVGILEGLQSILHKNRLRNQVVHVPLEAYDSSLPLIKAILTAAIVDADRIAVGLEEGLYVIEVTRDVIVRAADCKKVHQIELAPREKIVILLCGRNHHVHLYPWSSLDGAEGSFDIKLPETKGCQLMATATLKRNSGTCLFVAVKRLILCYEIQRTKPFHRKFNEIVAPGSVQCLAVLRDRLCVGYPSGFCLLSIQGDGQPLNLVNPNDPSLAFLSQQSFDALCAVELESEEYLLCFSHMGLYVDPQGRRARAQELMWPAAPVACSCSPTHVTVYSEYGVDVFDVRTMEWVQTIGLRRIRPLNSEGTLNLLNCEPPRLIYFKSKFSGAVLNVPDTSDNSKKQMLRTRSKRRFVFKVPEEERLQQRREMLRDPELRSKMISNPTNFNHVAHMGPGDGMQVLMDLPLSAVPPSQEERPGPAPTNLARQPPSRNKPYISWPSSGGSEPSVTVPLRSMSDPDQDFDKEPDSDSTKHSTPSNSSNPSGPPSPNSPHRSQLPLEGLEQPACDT
Sequence of Melanocortin receptor 4 (Homo sapiens) (P32245 whole entry): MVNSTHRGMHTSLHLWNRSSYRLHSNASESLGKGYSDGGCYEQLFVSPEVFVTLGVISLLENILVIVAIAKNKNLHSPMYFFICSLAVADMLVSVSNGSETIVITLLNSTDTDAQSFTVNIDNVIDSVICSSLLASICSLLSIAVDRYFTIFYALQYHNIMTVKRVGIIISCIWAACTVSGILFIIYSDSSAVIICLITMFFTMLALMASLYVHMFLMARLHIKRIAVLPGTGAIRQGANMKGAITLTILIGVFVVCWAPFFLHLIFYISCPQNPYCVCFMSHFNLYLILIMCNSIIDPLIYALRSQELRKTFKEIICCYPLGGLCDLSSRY

C[C@@H]1CN(c2cc(-c3n[nH]c4ccc(OC5(C)CC5)cc34)ncn2)C[C@H](C)O1 [MLi-2]
inhibition [1]: -6% | inhibition at 60 min, 10 µM [2]: 28% (not active) | inhibition [3]: -3.26% | inhibition [4]: -0.166% | inhibition [5]: 9.6% | inhibition [6]: 17% | inhibition [7]: 33% | inhibition [8]: 4.34% | inhibition [9]: 1% | inhibition [10]: -4% | inhibition [11]: 7.96%
